Where a SMILES comes first, the peptide text is derived from it.
How the values were obtained:
[1] = target: Voltage-gated inwardly rectifying potassium channel KCNH2 (Homo sapiens, UniProt Q12809); type: functional; settings: read-out: AC50
[2] = target: T1, Endothelin-1 receptor (Homo sapiens, UniProt P25101)
T1 sequence (P25101 whole entry): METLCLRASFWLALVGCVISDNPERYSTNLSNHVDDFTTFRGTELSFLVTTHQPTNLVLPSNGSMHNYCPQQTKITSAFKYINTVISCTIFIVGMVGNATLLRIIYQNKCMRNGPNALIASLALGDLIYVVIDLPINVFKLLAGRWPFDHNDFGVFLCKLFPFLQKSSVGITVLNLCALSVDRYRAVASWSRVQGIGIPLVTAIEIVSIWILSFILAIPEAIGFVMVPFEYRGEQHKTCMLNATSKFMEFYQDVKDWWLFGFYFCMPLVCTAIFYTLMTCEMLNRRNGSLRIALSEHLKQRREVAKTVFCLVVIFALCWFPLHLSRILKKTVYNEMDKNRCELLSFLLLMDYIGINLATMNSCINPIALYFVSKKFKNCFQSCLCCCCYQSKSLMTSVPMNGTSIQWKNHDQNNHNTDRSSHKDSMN

[3] = target: T2, Adenosine receptor A3 (Homo sapiens, UniProt P0DMS8)
T2 sequence (P0DMS8 whole entry): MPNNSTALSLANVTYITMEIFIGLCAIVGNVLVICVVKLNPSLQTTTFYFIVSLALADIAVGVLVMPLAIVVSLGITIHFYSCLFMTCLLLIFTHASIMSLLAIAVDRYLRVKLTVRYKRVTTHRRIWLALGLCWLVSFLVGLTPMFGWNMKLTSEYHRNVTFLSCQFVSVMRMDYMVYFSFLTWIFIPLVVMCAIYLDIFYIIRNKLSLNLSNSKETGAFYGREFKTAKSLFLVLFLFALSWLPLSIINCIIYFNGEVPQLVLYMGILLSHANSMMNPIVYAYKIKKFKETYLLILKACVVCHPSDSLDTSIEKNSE

[4] = target: Histamine H3 receptor (Homo sapiens, UniProt Q9Y5N1)
[5] = target: T3, Prostaglandin G/H synthase 1 (Rattus norvegicus, UniProt Q63921); type: functional
T3 sequence (Q63921 whole entry): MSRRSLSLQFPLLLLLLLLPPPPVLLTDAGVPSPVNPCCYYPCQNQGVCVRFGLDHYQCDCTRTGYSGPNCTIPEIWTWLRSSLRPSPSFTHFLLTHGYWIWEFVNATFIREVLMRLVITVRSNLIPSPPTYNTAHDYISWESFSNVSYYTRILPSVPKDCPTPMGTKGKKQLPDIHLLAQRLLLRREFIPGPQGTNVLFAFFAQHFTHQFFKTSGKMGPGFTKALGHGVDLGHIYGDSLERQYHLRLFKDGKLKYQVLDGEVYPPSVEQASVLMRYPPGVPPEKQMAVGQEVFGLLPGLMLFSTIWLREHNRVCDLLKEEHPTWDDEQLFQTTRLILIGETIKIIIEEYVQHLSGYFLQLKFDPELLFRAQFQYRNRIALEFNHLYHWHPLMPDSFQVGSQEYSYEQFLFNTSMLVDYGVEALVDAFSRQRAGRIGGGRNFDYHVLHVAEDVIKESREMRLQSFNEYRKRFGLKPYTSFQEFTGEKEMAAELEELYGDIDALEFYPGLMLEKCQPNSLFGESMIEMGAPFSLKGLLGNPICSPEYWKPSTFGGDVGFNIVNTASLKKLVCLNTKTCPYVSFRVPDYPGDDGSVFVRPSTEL

[6] = target: T4, Progesterone receptor (Homo sapiens, UniProt P06401); type: functional
T4 sequence (P06401 whole entry): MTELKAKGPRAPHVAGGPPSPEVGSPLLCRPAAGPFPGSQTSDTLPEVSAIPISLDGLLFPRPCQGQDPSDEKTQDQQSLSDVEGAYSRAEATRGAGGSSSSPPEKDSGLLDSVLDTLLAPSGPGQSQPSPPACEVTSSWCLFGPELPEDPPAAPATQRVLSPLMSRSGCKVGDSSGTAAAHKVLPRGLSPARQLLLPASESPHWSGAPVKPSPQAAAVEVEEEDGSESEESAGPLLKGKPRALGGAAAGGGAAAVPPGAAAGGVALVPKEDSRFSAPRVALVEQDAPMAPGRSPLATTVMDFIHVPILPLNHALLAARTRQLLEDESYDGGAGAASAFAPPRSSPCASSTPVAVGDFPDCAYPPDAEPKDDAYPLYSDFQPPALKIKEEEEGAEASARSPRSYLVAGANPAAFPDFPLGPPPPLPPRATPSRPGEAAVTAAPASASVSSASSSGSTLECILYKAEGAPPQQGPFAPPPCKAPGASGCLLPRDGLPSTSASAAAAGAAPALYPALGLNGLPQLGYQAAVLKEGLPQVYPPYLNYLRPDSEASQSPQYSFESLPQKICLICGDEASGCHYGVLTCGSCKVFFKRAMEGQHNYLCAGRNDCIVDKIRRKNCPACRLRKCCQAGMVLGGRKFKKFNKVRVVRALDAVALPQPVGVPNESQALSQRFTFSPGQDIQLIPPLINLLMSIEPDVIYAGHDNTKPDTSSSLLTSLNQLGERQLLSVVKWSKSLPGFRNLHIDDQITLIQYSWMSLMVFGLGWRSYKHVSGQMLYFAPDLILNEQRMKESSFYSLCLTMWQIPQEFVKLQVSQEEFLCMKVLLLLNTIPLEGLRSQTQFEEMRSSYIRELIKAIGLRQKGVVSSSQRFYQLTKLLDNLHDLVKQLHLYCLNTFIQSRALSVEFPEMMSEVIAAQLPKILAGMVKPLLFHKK

[7] = target: Gamma-aminobutyric acid receptor subunit alpha-1 (Rattus norvegicus, UniProt P62813)
[8] = target: T5, Thromboxane A2 receptor (Homo sapiens, UniProt P21731)
T5 sequence (P21731 whole entry): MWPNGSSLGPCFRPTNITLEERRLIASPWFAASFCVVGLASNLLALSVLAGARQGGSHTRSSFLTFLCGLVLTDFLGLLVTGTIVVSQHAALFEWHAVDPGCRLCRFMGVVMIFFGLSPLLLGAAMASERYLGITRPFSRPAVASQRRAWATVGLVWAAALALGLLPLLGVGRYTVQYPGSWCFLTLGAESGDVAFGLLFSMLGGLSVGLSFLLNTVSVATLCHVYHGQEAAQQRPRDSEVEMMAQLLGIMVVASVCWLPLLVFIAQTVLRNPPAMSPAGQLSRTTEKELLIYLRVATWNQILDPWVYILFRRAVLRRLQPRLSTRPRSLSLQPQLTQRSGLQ

[9] = target: Muscarinic acetylcholine receptor M3 (Homo sapiens, UniProt P20309)
[10] = target: Beta-2 adrenergic receptor (Homo sapiens, UniProt P07550)
Note: assay procedure not described here.

Chain of Histamine H3 receptor (Q9Y5N1 whole entry): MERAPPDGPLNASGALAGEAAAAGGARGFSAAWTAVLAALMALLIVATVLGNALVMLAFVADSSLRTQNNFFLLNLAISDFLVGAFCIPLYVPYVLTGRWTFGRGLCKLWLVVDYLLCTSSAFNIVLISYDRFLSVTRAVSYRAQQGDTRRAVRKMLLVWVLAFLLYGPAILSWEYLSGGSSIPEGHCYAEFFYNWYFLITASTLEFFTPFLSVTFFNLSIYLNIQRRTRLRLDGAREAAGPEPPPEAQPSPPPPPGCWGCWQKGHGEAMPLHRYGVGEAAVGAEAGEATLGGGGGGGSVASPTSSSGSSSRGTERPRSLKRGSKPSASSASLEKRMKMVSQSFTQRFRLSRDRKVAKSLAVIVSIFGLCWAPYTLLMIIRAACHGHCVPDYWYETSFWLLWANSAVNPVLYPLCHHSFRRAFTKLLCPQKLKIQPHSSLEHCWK
Chain of Gamma-aminobutyric acid receptor subunit alpha-1 (P62813 whole entry): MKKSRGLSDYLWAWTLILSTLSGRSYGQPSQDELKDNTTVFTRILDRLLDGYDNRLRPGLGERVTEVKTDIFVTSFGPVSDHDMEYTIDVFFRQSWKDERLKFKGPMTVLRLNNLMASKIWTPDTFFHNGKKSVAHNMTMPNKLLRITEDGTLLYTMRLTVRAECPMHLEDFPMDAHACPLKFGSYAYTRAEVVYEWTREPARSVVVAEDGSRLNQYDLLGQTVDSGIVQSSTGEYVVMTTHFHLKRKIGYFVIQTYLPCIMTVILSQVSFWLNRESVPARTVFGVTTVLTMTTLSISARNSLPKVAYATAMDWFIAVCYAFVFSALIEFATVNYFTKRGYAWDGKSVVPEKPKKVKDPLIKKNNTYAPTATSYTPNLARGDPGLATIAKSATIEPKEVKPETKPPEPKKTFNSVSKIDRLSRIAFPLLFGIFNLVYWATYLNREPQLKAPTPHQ
Chain of Voltage-gated inwardly rectifying potassium channel KCNH2 (Q12809 whole entry): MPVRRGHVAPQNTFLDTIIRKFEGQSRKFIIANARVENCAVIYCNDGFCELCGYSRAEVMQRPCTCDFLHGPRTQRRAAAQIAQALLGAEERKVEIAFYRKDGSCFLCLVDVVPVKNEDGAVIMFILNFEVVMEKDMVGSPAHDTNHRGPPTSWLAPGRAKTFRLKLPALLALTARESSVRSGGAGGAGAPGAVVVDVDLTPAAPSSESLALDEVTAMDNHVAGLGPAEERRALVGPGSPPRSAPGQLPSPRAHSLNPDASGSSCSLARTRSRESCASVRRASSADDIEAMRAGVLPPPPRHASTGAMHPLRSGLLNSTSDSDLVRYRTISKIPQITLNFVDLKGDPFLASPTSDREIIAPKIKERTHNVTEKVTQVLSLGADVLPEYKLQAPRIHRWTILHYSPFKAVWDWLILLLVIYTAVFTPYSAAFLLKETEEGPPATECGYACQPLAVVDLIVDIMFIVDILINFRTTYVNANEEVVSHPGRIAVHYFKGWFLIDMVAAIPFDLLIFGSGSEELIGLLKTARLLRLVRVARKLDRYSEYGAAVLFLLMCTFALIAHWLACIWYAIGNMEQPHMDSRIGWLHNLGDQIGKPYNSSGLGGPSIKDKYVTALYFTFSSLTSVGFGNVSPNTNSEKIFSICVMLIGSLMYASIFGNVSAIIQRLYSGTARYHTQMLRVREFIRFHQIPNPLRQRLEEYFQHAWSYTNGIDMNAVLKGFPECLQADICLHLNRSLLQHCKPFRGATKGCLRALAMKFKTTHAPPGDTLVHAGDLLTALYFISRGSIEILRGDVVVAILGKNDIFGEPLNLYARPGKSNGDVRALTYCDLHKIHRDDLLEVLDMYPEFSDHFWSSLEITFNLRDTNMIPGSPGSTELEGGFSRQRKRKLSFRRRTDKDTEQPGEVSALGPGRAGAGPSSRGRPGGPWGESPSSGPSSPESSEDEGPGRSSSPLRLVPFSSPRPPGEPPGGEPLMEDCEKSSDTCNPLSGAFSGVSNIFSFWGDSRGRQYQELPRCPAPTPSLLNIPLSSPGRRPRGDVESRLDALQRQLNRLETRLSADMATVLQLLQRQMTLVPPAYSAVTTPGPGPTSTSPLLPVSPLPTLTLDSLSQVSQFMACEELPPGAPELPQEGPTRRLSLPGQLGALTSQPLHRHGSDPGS
Chain of Muscarinic acetylcholine receptor M3 (P20309 whole entry): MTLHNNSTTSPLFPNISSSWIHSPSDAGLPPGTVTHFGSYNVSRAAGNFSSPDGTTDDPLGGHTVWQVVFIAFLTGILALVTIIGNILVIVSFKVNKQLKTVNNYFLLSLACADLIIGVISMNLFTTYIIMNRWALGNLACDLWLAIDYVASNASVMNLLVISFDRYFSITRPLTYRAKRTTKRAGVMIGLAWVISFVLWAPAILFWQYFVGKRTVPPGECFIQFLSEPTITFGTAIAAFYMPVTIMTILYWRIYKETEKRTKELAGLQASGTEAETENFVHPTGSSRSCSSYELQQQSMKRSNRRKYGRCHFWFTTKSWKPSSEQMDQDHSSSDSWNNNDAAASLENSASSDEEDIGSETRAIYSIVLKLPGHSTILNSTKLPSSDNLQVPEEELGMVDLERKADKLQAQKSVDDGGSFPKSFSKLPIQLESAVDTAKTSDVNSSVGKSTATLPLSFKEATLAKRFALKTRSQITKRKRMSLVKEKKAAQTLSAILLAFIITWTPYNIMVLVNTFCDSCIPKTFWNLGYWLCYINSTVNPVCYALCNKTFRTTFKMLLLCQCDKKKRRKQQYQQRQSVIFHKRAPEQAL
Chain of Beta-2 adrenergic receptor (P07550 whole entry): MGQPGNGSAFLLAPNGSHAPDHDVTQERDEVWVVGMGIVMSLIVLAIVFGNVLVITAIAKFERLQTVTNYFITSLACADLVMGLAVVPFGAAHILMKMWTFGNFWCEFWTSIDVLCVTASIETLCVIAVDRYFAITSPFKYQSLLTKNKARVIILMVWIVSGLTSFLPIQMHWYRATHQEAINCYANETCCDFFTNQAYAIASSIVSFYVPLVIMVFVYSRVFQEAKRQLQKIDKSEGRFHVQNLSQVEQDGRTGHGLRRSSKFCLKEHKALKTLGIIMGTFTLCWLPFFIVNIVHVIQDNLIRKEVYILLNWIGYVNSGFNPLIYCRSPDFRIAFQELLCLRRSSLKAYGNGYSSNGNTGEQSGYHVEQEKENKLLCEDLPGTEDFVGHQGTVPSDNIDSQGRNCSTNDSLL

C[C@H](N)C(=O)N[C@@H](CCC(N)=O)C(=O)O [ALANYL GLUTAMINE] (H-Ala-Gln-OH)
AC50 [1]: > 30 µM | AC50 [2]: > 30 µM | AC50 [3]: > 30 µM | AC50 [4]: > 30 µM | AC50 [5]: > 30 µM | AC50 [6]: > 30 µM | AC50 [7]: > 30 µM | AC50 [8]: > 30 µM | AC50 [9]: > 30 µM | AC50 [10]: > 30 µM

COc1cc(N)cn[n+]1-c1ccccc1 [AMEZINIUM METILSULFATE]
AC50 [1]: 3.8 µM | AC50 [2]: > 30 µM | AC50 [3]: > 30 µM | AC50 [4]: > 30 µM | AC50 [5]: > 30 µM | AC50 [6]: > 30 µM | AC50 [7]: > 30 µM | AC50 [8]: > 30 µM | AC50 [9]: > 30 µM | AC50 [10]: > 30 µM

CCN(CC)CCCN(c1ccccc1)C1Cc2ccccc2C1 [APRINDINE]
AC50 [1]: 1 µM | AC50 [2]: > 30 µM | AC50 [3]: > 30 µM | AC50 [4]: 18 µM | AC50 [5]: > 30 µM | AC50 [6]: > 30 µM | AC50 [7]: > 30 µM | AC50 [8]: > 10 µM | AC50 [9]: > 30 µM | AC50 [10]: > 10 µM

CO/N=C(\C(=O)N[C@@H]1C(=O)N2C(C(=O)O)=C(CSc3nc(C)c(CC(=O)O)s3)CS[C@H]12)c1csc(N)n1 [CEFODIZIME]
AC50 [1]: > 30 µM | AC50 [2]: > 30 µM | AC50 [3]: > 30 µM | AC50 [4]: > 30 µM | AC50 [5]: 27 µM | AC50 [6]: > 30 µM | AC50 [7]: > 30 µM | AC50 [8]: > 30 µM | AC50 [9]: > 30 µM | AC50 [10]: > 30 µM

CO/N=C(\C(=O)N[C@@H]1C(=O)N2C(C(=O)[O-])=C(C[n+]3ccc(N)n3CCO)CS[C@H]12)c1csc(N)n1 [CEFOSELIS]
AC50 [1]: > 30 µM | AC50 [2]: > 30 µM | AC50 [3]: > 30 µM | AC50 [4]: > 30 µM | AC50 [5]: > 30 µM | AC50 [6]: > 30 µM | AC50 [7]: > 30 µM | AC50 [8]: > 30 µM | AC50 [9]: > 30 µM | AC50 [10]: > 30 µM

COc1ccc(C(Cl)=C(c2ccc(OC)cc2)c2ccc(OC)cc2)cc1 [CHLOROTRIANISENE]
AC50 [1]: > 30 µM | AC50 [2]: > 30 µM | AC50 [3]: 28 µM | AC50 [4]: > 30 µM | AC50 [5]: 0.259 µM | AC50 [6]: > 30 µM | AC50 [7]: > 30 µM | AC50 [8]: > 10 µM | AC50 [9]: > 30 µM | AC50 [10]: > 10 µM

CCCO[C@H]1[C@@H]([C@@H](COCc2ccc(Cl)cc2)OCc2ccc(Cl)cc2)OC(OCC)[C@@H]1O (stereo not given in full) [CLOBENOSIDE]
AC50 [1]: > 30 µM | AC50 [2]: > 30 µM | AC50 [3]: 20 µM | AC50 [4]: > 30 µM | AC50 [5]: > 10 µM | AC50 [6]: > 30 µM | AC50 [7]: > 30 µM | AC50 [8]: > 30 µM | AC50 [9]: > 30 µM | AC50 [10]: > 30 µM

CC(=O)Oc1cccc2c1C(=O)c1c(OC(C)=O)cc(C(=O)O)cc1C2=O [DIACEREIN]
AC50 [1]: > 30 µM | AC50 [2]: > 30 µM | AC50 [3]: 17 µM | AC50 [4]: > 30 µM | AC50 [5]: 0.9 µM | AC50 [6]: > 30 µM | AC50 [7]: > 30 µM | AC50 [8]: > 30 µM | AC50 [9]: > 30 µM | AC50 [10]: > 30 µM

Cc1ccc(S(=O)(=O)NC(=O)N[C@H]2[C@H]3CC[C@@](C)([C@H]2O)C3(C)C)cc1 [GLIBORNURIDE]
AC50 [1]: > 30 µM | AC50 [2]: > 30 µM | AC50 [3]: > 30 µM | AC50 [4]: > 30 µM | AC50 [5]: > 30 µM | AC50 [6]: > 30 µM | AC50 [7]: > 30 µM | AC50 [8]: > 30 µM | AC50 [9]: > 30 µM | AC50 [10]: > 30 µM

CCC(NC(C)C)C(O)c1ccc(O)c(O)c1 (stereo not given) [ISOETHARINE]
AC50 [1]: > 30 µM | AC50 [2]: > 30 µM | AC50 [3]: > 30 µM | AC50 [4]: > 30 µM | AC50 [5]: 0.66 µM | AC50 [6]: > 30 µM | AC50 [7]: > 30 µM | AC50 [8]: > 30 µM | AC50 [9]: > 30 µM | AC50 [10]: 5.43 µM

CCN(CC)Cc1nccn1-c1ccc([N+](=O)[O-])cc1C(=O)c1ccccc1Cl [NIZOFENONE]
AC50 [1]: 1.38 µM | AC50 [2]: > 30 µM | AC50 [3]: > 30 µM | AC50 [4]: > 30 µM | AC50 [5]: > 30 µM | AC50 [6]: > 30 µM | AC50 [7]: > 30 µM | AC50 [8]: > 30 µM | AC50 [9]: > 30 µM | AC50 [10]: > 30 µM

CCCCOC(=O)C(=O)Nc1cccc(-c2nnn[nH]2)c1 [TAZANOLAST]
AC50 [1]: > 30 µM | AC50 [2]: > 30 µM | AC50 [3]: > 30 µM | AC50 [4]: > 30 µM | AC50 [5]: > 30 µM | AC50 [6]: > 30 µM | AC50 [7]: > 30 µM | AC50 [8]: > 30 µM | AC50 [9]: > 30 µM | AC50 [10]: > 30 µM

CC1=C(/C=C/C(C)=C/C=C/C(C)=C/C(=O)Oc2c(C)c(C)c3c(c2C)CCC(C)(CCCC(C)CCCC(C)CCCC(C)C)O3)C(C)(C)CCC1 (stereo not given) [TRETINOIN TOCOFERIL]
AC50 [1]: > 30 µM | AC50 [2]: > 30 µM | AC50 [3]: > 30 µM | AC50 [4]: > 30 µM | AC50 [5]: > 30 µM | AC50 [6]: > 30 µM | AC50 [7]: > 30 µM | AC50 [8]: > 30 µM | AC50 [9]: > 30 µM | AC50 [10]: > 30 µM
